Columns and labels:
Orexin receptor type 2 = target: T1, Orexin receptor type 2 (Homo sapiens, UniProt O43614); assay: Antagonist activity at human OX2 receptor expressed in CHOK1 cells assessed as inhibition of orexin-A-induced calcium mobilization preincubated for 15 mins followed by orexin-A addition and measured by FURA 2-AM dye based fluorescence assay; format: functional, cell-based
T1 sequence (O43614 whole entry): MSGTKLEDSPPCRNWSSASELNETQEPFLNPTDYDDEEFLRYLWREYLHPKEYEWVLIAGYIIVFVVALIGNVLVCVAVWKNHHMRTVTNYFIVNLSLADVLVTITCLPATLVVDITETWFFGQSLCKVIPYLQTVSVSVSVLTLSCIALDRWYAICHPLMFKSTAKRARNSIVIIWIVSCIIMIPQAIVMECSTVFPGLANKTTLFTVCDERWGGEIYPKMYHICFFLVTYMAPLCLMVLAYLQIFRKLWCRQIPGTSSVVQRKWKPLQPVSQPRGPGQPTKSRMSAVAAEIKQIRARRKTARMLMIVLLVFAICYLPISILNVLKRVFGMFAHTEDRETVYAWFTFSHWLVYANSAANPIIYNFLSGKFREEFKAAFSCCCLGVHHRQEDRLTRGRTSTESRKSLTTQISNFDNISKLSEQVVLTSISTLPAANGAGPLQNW

[1] = target: T2, Orexin/Hypocretin receptor type 1 (Homo sapiens, UniProt O43613); assay: Antagonist activity at human OX1 receptor expressed in CHOK1 cells assessed as inhibition of orexin-A-induced calcium mobilization preincubated for 15 mins followed by orexin-A addition and measured by FURA 2-AM dye based fluorescence assay; format: functional, cell-based
T2 sequence (O43613 whole entry): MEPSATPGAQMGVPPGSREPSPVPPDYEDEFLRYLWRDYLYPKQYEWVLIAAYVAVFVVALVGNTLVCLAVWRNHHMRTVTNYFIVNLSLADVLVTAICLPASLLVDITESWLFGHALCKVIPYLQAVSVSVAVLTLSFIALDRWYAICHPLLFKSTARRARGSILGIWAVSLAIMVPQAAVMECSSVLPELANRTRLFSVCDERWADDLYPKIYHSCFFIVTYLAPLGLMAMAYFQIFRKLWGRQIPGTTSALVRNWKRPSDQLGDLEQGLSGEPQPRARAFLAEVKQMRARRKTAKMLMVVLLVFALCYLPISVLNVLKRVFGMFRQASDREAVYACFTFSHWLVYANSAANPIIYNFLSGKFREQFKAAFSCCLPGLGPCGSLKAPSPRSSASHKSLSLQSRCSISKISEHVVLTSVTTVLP

Question: For `COc1ccc2c(c1)[C@]13CCN(S(=O)(=O)c4ccccc4)[C@H](C2)C1=CC[C@@H](N(C)C(=O)/C=C/c1ccoc1)C3`, which Ki (Orexin receptor type 2) is on record?
Answer: Its Ki is greater than 10000 nM.

Question: And the Ki [1]?
Answer: Its Ki is 5.89 nM.

Question: How did the Ki (Orexin receptor type 2) turn out when `COc1ccc2c(c1)[C@]13CCN(S(=O)(=O)c4ccccc4)[C@H](C2)[C@]1(O)CC[C@@H](N(C)C(=O)/C=C/c1ccoc1)C3` was run?
Answer: The Ki was greater than 10000 nM.

Question: For `CN(C(=O)/C=C/c1ccoc1)[C@H]1CC[C@@]2(O)[C@H]3CC4=C(CCCC4)[C@@]2(CCN3S(=O)(=O)c2ccccc2)C1`, which Ki (Orexin receptor type 2) is on record?
Answer: Its Ki is 91.9 nM.

Question: What about the Ki [1] of the same compound?
Answer: Its Ki is 7.45 nM.

Question: Which Ki (Orexin receptor type 2) does the source give for `COc1ccc2c3c1O[C@H]1[C@H](N(C)C(=O)/C=C/c4ccoc4)CC[C@@]4(O)[C@@H](C2)N(S(=O)(=O)c2ccccc2)CC[C@]314` here?
Answer: The Ki was greater than 10000 nM.

Question: With `CN(C(=O)/C=C/c1ccoc1)[C@H]1CC[C@@]2(O)[C@H]3Cc4ccccc4[C@@]2(CCN3S(=O)(=O)c2ccccc2)C1` as the compound, how does the Ki (Orexin receptor type 2) read?
Answer: The Ki was 173 nM.

Question: What about the Ki [1] of the same compound?
Answer: Its Ki is 9.35 nM.

Question: `COc1ccc2c(c1)[C@]13CCN(S(=O)(=O)c4ccccc4)[C@H](C2)[C@@H]1CC[C@H](N(C)C(=O)/C=C/c1ccoc1)C3` was tested. Which Ki (Orexin receptor type 2) did it give?
Answer: Its Ki is 79.9 nM.

Question: What about the Ki [1] of the same compound?
Answer: The Ki was 4.34 nM.

Question: `CN(C(=O)/C=C/c1ccoc1)[C@@H]1CC[C@@]2(O)[C@H]3Cc4ccccc4[C@@]2(CCN3S(=O)(=O)c2ccccc2)C1` was tested. Which Ki (Orexin receptor type 2) did it give?
Answer: The Ki was greater than 10000 nM.

Question: What about the Ki [1] of the same compound?
Answer: Its Ki is 461 nM.

Question: How did the Ki (Orexin receptor type 2) turn out when `COc1ccc2c(c1)[C@]13CCN(S(=O)(=O)c4ccccc4)[C@H](C2)C1=CC[C@H](N(C)C(=O)/C=C/c1ccoc1)C3` was run?
Answer: Its Ki is greater than 10000 nM.

Question: What about the Ki [1] of the same compound?
Answer: Its Ki is 502 nM.

Question: With `COc1ccc2c(c1)[C@]13CCN(S(=O)(=O)c4ccccc4)[C@H](C2)[C@@H]1CC[C@@H](N(C)C(=O)/C=C/c1ccoc1)C3` as the compound, how does the Ki (Orexin receptor type 2) read?
Answer: The Ki was greater than 10000 nM.

Question: What about the Ki [1] of the same compound?
Answer: The Ki was 5.51 nM.

Question: `CN(C(=O)/C=C/c1ccoc1)[C@@H]1CC[C@@]2(O)[C@H]3CC4=C(CCCC4)[C@@]2(CCN3S(=O)(=O)c2ccccc2)C1` was tested. Which Ki (Orexin receptor type 2) did it give?
Answer: The Ki was greater than 10000 nM.

Question: And the Ki [1]?
Answer: The Ki was greater than 10000 nM.
